Assay results as given in PubChem BioAssay AID288 (DTP/NCI, 2004).
Values joined by “and” are separate entries in the source; they are usually repeats but may differ in a detail not shown here. Equal entries are not always repeated. Inconclusive results are not listed.

Test system: BDF1 mice, M5076 sarcoma s.c., survival/tumor T/C
Assay: NCI In Vivo Anticancer Drug Screen. Data for tumor model Sarcoma M5076 (subcutaneous) in B6D2F1 (BDF1) mice
Description: The antitumor activity of compounds was measured in mice bearing transplantable tumors. Survival or tumor size were measured and the results are expressed as the measurement made in the treated group (T) divided by the measurement made in the vehicle treated control group (C). The tumor model used in this assay is Sarcoma M5076 (subcutaneous) in B6D2F1 (BDF1) mice

[1] = endpoint: median survival time, dose: 12.5 mg/kg/injection, schedule: Q01DX009 (ip), vehicle: saline with Tween-80, higher = longer survival

## CC(C)CC(NC(=O)C(N)C(C)C)C(=O)NC(CCCCN)C(=O)NC(C(=O)O)C1CC(Cl)=NO1 (configuration not stated)
endpoint: median survival time, dose: 1.6 mg/kg/injection, schedule: Q01DX010 (ip), vehicle: saline, higher = longer survival
  T/C: 103 % of control and 106 % of control
endpoint: median survival time, dose: 25.6 mg/kg/injection, schedule: Q01DX010 (ip), vehicle: saline, higher = longer survival
  T/C: 173 % of control
endpoint: median survival time, dose: 51.2 mg/kg/injection, schedule: Q01DX010 (ip), vehicle: saline, higher = longer survival
  T/C: 166 % of control

## COc1ccc(/C=C2\SC(=O)N(C)C2=O)cc1OC
endpoint: median survival time, dose: 50.0 mg/kg/injection, schedule: Q01DX009 (ip), vehicle: saline with Tween-80, higher = longer survival
  T/C: 93 % of control
endpoint: median survival time, dose: 100.0 mg/kg/injection, schedule: Q01DX009 (ip), vehicle: saline with Tween-80, higher = longer survival
  T/C: 100 % of control
endpoint: median survival time, dose: 200.0 mg/kg/injection, schedule: Q01DX009 (ip), vehicle: saline with Tween-80, higher = longer survival
  T/C: 93 % of control
endpoint: median tumor weight (est.), dose: 50.0 mg/kg/injection, schedule: Q01DX009 (ip), vehicle: saline with Tween-80, higher = larger tumour
  T/C: 104 % of control
endpoint: median tumor weight (est.), dose: 100.0 mg/kg/injection, schedule: Q01DX009 (ip), vehicle: saline with Tween-80, higher = larger tumour
  T/C: 110 % of control
endpoint: median tumor weight (est.), dose: 200.0 mg/kg/injection, schedule: Q01DX009 (ip), vehicle: saline with Tween-80, higher = larger tumour
  T/C: 77 % of control

## CC1(C)N=C(N)N=C(N)N1c1ccc(CCCCc2ccc(S(=O)(=O)F)cc2Cl)c(Cl)c1
endpoint: median survival time, dose: 1.8 mg/kg/injection, schedule: Q01DX005 (iv), vehicle: other, higher = longer survival
  T/C: 97 % of control
endpoint: median survival time, dose: 3.7 mg/kg/injection, schedule: Q01DX001 (iv), vehicle: other, higher = longer survival
  T/C: 107 % of control
endpoint: median survival time, dose: 3.7 mg/kg/injection, schedule: Q01DX005 (iv), vehicle: other, higher = longer survival
  T/C: 97 % of control
endpoint: median survival time, dose: 5.18 mg/kg/injection, schedule: Q01DX009 (ip), vehicle: other, higher = longer survival
  T/C: 162 % of control
endpoint: median survival time, dose: 5.4 mg/kg/injection, schedule: Q01DX009 (ip), vehicle: other, higher = longer survival
  T/C: 151 % of control
endpoint: median survival time, dose: 7.5 mg/kg/injection, schedule: Q01DX001 (iv), vehicle: other, higher = longer survival
  T/C: 91 % of control
endpoint: median survival time, dose: 7.5 mg/kg/injection, schedule: Q01DX005 (iv), vehicle: other, higher = longer survival
  T/C: 114 % of control
endpoint: median survival time, dose: 8.0 mg/kg/injection, schedule: Q01DX009 (ip), vehicle: other, higher = longer survival
  T/C: 151 % of control
endpoint: median survival time, dose: 8.64 mg/kg/injection, schedule: Q01DX009 (ip), vehicle: other, higher = longer survival
  T/C: 176 % of control
endpoint: median survival time, dose: 10.0 mg/kg/injection, schedule: Q01DX009 (ip), vehicle: saline with Tween-80, higher = longer survival
  T/C: 150 % of control
endpoint: median survival time, dose: 14.4 mg/kg/injection, schedule: Q01DX009 (ip), vehicle: other, higher = longer survival
  T/C: 190 % of control
endpoint: median survival time, dose: 15.0 mg/kg/injection, schedule: Q01DX001 (ip), vehicle: other, higher = longer survival
  T/C: 110 % of control
endpoint: median survival time, dose: 15.0 mg/kg/injection, schedule: Q01DX005 (ip), vehicle: other, higher = longer survival
  T/C: 124 % of control
endpoint: median survival time, dose: 15.0 mg/kg/injection, schedule: Q01DX009 (oral), vehicle: other, higher = longer survival
  T/C: 89 % of control
endpoint: median survival time, dose: 20.0 mg/kg/injection, schedule: Q01DX009 (ip), vehicle: other, higher = longer survival
  T/C: 155 % of control
endpoint: median survival time, dose: 20.0 mg/kg/injection, schedule: Q01DX009 (ip), vehicle: saline with Tween-80, higher = longer survival
  T/C: 177 % of control
endpoint: median survival time, dose: 27.0 mg/kg/injection, schedule: Q01DX009 (ip), vehicle: saline with Tween-80, higher = longer survival
  T/C: 168 % of control
endpoint: median survival time, dose: 30.0 mg/kg/injection, schedule: Q01DX001 (ip), vehicle: other, higher = longer survival
  T/C: 103 % of control
endpoint: median survival time, dose: 30.0 mg/kg/injection, schedule: Q01DX001 (oral), vehicle: other, higher = longer survival
  T/C: 110 % of control
endpoint: median survival time, dose: 30.0 mg/kg/injection, schedule: Q01DX005 (oral), vehicle: other, higher = longer survival
  T/C: 97 % of control
endpoint: median survival time, dose: 30.0 mg/kg/injection, schedule: Q01DX009 (ip), vehicle: other, higher = longer survival
  T/C: 169 % of control
endpoint: median survival time, dose: 30.0 mg/kg/injection, schedule: Q01DX009 (oral), vehicle: other, higher = longer survival
  T/C: 120 % of control
endpoint: median survival time, dose: 40.0 mg/kg/injection, schedule: Q01DX009 (ip), vehicle: saline with Tween-80, higher = longer survival
  T/C: 163 % of control and 217 % of control and 232 % of control
endpoint: median survival time, dose: 60.0 mg/kg/injection, schedule: Q01DX001 (ip), vehicle: other, higher = longer survival
  T/C: 111 % of control
endpoint: median survival time, dose: 60.0 mg/kg/injection, schedule: Q01DX001 (oral), vehicle: other, higher = longer survival
  T/C: 97 % of control
endpoint: median survival time, dose: 60.0 mg/kg/injection, schedule: Q01DX005 (oral), vehicle: other, higher = longer survival
  T/C: 117 % of control
endpoint: median survival time, dose: 60.0 mg/kg/injection, schedule: Q01DX009 (ip), vehicle: saline with Tween-80, higher = longer survival
  T/C: 204 % of control and 239 % of control
endpoint: median survival time, dose: 60.0 mg/kg/injection, schedule: Q01DX009 (oral), vehicle: other, higher = longer survival
  T/C: 114 % of control
endpoint: median survival time, dose: 62.0 mg/kg/injection, schedule: Q01DX009 (ip), vehicle: saline with Tween-80, higher = longer survival
  T/C: 255 % of control
endpoint: median survival time, dose: 89.0 mg/kg/injection, schedule: Q01DX009 (ip), vehicle: saline with Tween-80, higher = longer survival
  T/C: 224 % of control
endpoint: median survival time, dose: 120.0 mg/kg/injection, schedule: Q01DX001 (oral), vehicle: other, higher = longer survival
  T/C: 97 % of control
endpoint: median survival time, dose: 120.0 mg/kg/injection, schedule: Q01DX005 (oral), vehicle: other, higher = longer survival
  T/C: 116 % of control
endpoint: median survival time, dose: 120.0 mg/kg/injection, schedule: Q01DX009 (oral), vehicle: other, higher = longer survival
  T/C: 104 % of control
endpoint: median survival time, dose: 240.0 mg/kg/injection, schedule: Q01DX001 (ip), vehicle: other, higher = longer survival
  T/C: 123 % of control
endpoint: median survival time, dose: 240.0 mg/kg/injection, schedule: Q01DX001 (oral), vehicle: other, higher = longer survival
  T/C: 109 % of control
endpoint: median survival time, dose: 240.0 mg/kg/injection, schedule: Q01DX005 (oral), vehicle: other, higher = longer survival
  T/C: 117 % of control
endpoint: median survival time, dose: 240.0 mg/kg/injection, schedule: Q01DX009 (oral), vehicle: other, higher = longer survival
  T/C: 110 % of control
endpoint: median survival time, dose: 480.0 mg/kg/injection, schedule: Q01DX001 (oral), vehicle: other, higher = longer survival
  T/C: 100 % of control
endpoint: median survival time, dose: 480.0 mg/kg/injection, schedule: Q01DX005 (oral), vehicle: other, higher = longer survival
  T/C: 109 % of control
endpoint: median survival time, dose: 480.0 mg/kg/injection, schedule: Q01DX009 (oral), vehicle: other, higher = longer survival
  T/C: 124 % of control

## CCCNC(=O)ON1C(=O)C2C3C=CC(C3)C2C1=O (configuration not stated)
endpoint: median survival time, dose: 3.12 mg/kg/injection, schedule: Q01DX009 (ip), vehicle: saline with Tween-80, higher = longer survival
  T/C: 98 % of control
endpoint: median survival time, dose: 6.25 mg/kg/injection, schedule: Q01DX009 (ip), vehicle: saline with Tween-80, higher = longer survival
  T/C: 95 % of control
[1]
  T/C: 103 % of control
endpoint: median tumor weight (est.), dose: 3.12 mg/kg/injection, schedule: Q01DX009 (ip), vehicle: saline with Tween-80, higher = larger tumour
  T/C: 93 % of control
endpoint: median tumor weight (est.), dose: 6.25 mg/kg/injection, schedule: Q01DX009 (ip), vehicle: saline with Tween-80, higher = larger tumour
  T/C: 107 % of control

## Nc1nc(N)c2c(ccc3nccc32)[nH]1
[1]
  T/C: 86 % of control
endpoint: median survival time, dose: 25.0 mg/kg/injection, schedule: Q01DX009 (ip), vehicle: saline with Tween-80, higher = longer survival
  T/C: 92 % of control
endpoint: median tumor weight (est.), dose: 12.5 mg/kg/injection, schedule: Q01DX009 (ip), vehicle: saline with Tween-80, higher = larger tumour
  T/C: 80 % of control
endpoint: median tumor weight (est.), dose: 25.0 mg/kg/injection, schedule: Q01DX009 (ip), vehicle: saline with Tween-80, higher = larger tumour
  T/C: 62 % of control

## O=C[C@@H](CO)O[C@H](C=O)n1cnc2c(=O)[nH]cnc21
endpoint: mean tumor weight, dose: 75.0 mg/kg/injection, schedule: Q02DX011 (ip), vehicle: saline, higher = larger tumour
  T/C: 93 % of control
endpoint: mean tumor weight, dose: 150.0 mg/kg/injection, schedule: Q02DX011 (ip), vehicle: saline, higher = larger tumour
  T/C: 105 % of control
endpoint: mean tumor weight, dose: 300.0 mg/kg/injection, schedule: Q02DX011 (ip), vehicle: saline, higher = larger tumour
  T/C: 54 % of control
endpoint: median tumor weight (est.), dose: 75.0 mg/kg/injection, schedule: Q02DX011 (ip), vehicle: saline, higher = larger tumour
  T/C: 376 % of control
endpoint: median tumor weight (est.), dose: 150.0 mg/kg/injection, schedule: Q02DX011 (ip), vehicle: saline, higher = larger tumour
  T/C: 385 % of control
endpoint: median tumor weight (est.), dose: 300.0 mg/kg/injection, schedule: Q02DX011 (ip), vehicle: saline, higher = larger tumour
  T/C: 266 % of control

## CO[C@H](C(=O)[C@@H](O)[C@@H](C)O)[C@@H]1Cc2cc3cc(OC4CC(OC5CC(O)C(O)C(C)O5)C(O)C(C)O4)c(C)c(O)c3c(O)c2C(=O)[C@H]1OC1CC(OC2CC(OC3CC(C)(O)C(O)C(C)O3)C(O)C(C)O2)C(O)C(C)O1 (some centres not stated)
endpoint: mean tumor weight, dose: 1.25 micrograms/kg/injection, schedule: Q02DX011 (ip), vehicle: water, higher = larger tumour
  T/C: 151 % of control
endpoint: mean tumor weight, dose: 5.0 micrograms/kg/injection, schedule: Q02DX011 (ip), vehicle: water, higher = larger tumour
  T/C: 168 % of control
endpoint: median tumor weight (est.), dose: 0.01 mg/kg/injection, schedule: Q02DX011 (ip), vehicle: water, higher = larger tumour
  T/C: 99 % of control
endpoint: median tumor weight (est.), dose: 0.05 mg/kg/injection, schedule: Q02DX011 (ip), vehicle: water, higher = larger tumour
  T/C: 154 % of control

## c1cc2n(n1)CCN2
endpoint: mean tumor weight, dose: 6.25 mg/kg/injection, schedule: Q02DX011 (ip), vehicle: saline, higher = larger tumour
  T/C: 122 % of control
endpoint: mean tumor weight, dose: 12.5 mg/kg/injection, schedule: Q02DX011 (ip), vehicle: saline, higher = larger tumour
  T/C: 85 % of control
endpoint: mean tumor weight, dose: 25.0 mg/kg/injection, schedule: Q02DX011 (ip), vehicle: saline, higher = larger tumour
  T/C: 103 % of control
endpoint: median tumor weight (est.), dose: 6.25 mg/kg/injection, schedule: Q02DX011 (ip), vehicle: saline, higher = larger tumour
  T/C: 161 % of control
